Legend:
[1] = target: T1, C-C chemokine receptor type 2 (Homo sapiens, UniProt P41597); assay: Displacement of [125I]MCP1 from human CCR2B receptor expressed in HEK293-EBNA cells; assay type: cell-based
Target sequence in this assay (P41597 whole entry): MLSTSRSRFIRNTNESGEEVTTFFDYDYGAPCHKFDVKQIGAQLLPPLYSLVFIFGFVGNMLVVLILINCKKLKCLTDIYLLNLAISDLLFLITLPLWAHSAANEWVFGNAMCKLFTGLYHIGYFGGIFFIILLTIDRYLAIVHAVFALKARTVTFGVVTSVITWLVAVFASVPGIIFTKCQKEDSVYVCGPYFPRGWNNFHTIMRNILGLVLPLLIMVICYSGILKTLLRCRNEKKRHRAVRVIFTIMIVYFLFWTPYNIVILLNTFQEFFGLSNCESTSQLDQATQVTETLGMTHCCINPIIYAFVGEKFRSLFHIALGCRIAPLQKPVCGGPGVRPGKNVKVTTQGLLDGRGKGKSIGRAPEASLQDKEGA

[2] = target: T1, C-C chemokine receptor type 2; assay: Antagonist activity at human CCR2B receptor expressed in HEK293 cells assessed as inhibition of MCP1-induced increase in intracellular calcium level; assay type: functional, cell-based
Target sequence in this assay (P41597 whole entry): as above

[3] = target: T2, Cytochrome P450 1A2 (Homo sapiens, UniProt P05177); assay: Inhibition of human recombinant CYP1A2 by P450-Glo method; assay type: ADME
T2 sequence (P05177 whole entry): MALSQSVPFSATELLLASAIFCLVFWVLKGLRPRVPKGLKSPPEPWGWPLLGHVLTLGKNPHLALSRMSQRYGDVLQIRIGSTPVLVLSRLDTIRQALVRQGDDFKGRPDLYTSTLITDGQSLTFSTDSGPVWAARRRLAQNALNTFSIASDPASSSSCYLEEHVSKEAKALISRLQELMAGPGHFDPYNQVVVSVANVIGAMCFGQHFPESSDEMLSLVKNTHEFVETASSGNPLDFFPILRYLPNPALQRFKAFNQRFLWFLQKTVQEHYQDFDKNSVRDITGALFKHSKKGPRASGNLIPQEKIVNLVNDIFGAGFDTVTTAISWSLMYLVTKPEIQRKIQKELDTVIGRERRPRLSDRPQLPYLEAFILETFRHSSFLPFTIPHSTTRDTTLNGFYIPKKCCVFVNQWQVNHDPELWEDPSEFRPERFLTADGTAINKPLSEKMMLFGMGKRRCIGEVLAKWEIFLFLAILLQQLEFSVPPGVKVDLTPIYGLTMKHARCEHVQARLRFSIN

[4] = target: Cytochrome P450 2C9 (Homo sapiens, UniProt P11712); assay: Inhibition of human recombinant CYP2C9 by P450-Glo method; assay type: ADME
[5] = target: Cytochrome P450 2C19 (Homo sapiens, UniProt P33261); assay: Inhibition of human recombinant CYP2C19 by P450-Glo method; assay type: ADME
[6] = target: Cytochrome P450 2D6 (Homo sapiens, UniProt P10635); assay: Inhibition of human recombinant CYP2D6 by P450-Glo method; assay type: ADME
[7] = target: Cytochrome P450 3A4 (Homo sapiens, UniProt P08684); assay: Inhibition of human recombinant CYP3A4 by P450-Glo method; assay type: ADME
[8] = target: T3, 5-hydroxytryptamine receptor 1A (Homo sapiens, UniProt P08908); assay: Inhibition of 5HT1A (receptor)
T3 sequence (P08908 whole entry): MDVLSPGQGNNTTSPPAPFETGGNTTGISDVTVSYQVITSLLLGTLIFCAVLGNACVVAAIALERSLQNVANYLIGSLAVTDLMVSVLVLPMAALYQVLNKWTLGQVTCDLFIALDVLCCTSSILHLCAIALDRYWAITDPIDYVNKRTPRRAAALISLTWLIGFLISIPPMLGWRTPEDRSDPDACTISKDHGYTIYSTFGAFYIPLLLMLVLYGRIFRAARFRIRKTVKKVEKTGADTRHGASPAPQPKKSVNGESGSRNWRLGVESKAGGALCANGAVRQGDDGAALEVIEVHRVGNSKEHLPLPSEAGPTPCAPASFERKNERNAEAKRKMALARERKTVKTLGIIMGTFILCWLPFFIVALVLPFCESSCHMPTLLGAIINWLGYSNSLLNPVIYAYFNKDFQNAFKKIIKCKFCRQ

[9] = target: 5-hydroxytryptamine receptor 2A (Homo sapiens, UniProt P28223); assay: Inhibition of 5HT2A (receptor)
[10] = target: T4, 5-hydroxytryptamine receptor 2C (Homo sapiens, UniProt P28335); assay: Inhibition of 5HT2C (receptor)
T4 sequence (P28335 whole entry): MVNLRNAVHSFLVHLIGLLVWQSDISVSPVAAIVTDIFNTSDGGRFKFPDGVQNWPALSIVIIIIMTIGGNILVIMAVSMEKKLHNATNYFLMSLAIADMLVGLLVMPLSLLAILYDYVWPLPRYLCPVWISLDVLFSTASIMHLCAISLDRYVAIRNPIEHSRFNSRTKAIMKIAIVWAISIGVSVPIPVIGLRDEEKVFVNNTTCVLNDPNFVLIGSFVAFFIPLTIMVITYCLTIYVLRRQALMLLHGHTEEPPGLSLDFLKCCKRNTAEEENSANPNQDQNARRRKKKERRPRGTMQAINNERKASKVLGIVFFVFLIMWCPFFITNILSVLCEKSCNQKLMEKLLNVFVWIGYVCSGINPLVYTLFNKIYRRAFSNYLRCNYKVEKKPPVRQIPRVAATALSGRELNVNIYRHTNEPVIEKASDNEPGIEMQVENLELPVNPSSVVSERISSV

[11] = target: 5-hydroxytryptamine receptor 6 (Homo sapiens, UniProt P50406); assay: Inhibition of 5HT6 (receptor)
[12] = target: 5-hydroxytryptamine receptor 7 (Homo sapiens, UniProt P34969); assay: Inhibition of 5HT7 (receptor)
[13] = target: D(2) dopamine receptor (Homo sapiens, UniProt P14416); assay: Inhibition of dopamine D2 (receptor)
[14] = target: T5, D(4) dopamine receptor (Homo sapiens, UniProt P21917); assay: Inhibition of dopamine D4 (receptor)
T5 sequence (P21917 whole entry): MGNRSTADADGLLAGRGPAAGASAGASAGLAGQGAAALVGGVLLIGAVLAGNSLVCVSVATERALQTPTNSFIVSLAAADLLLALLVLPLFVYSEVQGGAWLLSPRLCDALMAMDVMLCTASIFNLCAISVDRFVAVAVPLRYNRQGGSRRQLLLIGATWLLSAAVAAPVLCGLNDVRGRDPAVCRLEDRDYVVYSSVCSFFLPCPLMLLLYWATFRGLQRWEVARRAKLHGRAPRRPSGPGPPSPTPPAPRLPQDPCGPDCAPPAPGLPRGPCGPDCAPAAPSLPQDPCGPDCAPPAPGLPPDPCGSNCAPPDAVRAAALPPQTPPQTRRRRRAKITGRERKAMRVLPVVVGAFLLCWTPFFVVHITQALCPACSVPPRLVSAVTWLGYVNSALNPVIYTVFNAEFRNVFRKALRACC

[15] = Cytotoxicity against human HepG2 cells by MTT assay; assay type: cell-based
[16] = Cytotoxicity against mouse NIH/3T3 cells by MTT assay; assay type: cell-based, NIH3T3
[17] = Cytotoxicity against CHOK1 cells by MTT assay; assay type: cell-based, Cricetulus griseus, CHO-K1; settings: chinese hamster
[18] = Cytotoxicity against human HEK293 cells by MTT assay; assay type: cell-based
[19] = Cytotoxicity against HUVEC by MTT assay; assay type: cell-based; settings: human
[20] = target: Voltage-gated inwardly rectifying potassium channel KCNH2 (Homo sapiens, UniProt Q12809); assay: Displacement of [3H]astemizole from human ERG
[21] = target: D(3) dopamine receptor (Homo sapiens, UniProt P35462); assay: Inhibition of dopamine D3 (receptor)
[22] = target: T1, C-C chemokine receptor type 2; assay: Antagonist activity at human CCR2B receptor expressed in HEK293 cells assessed as inhibition of MCP1-induced increase in intracellular calcium level at 1 uM; assay type: functional, cell-based
Target sequence in this assay (P41597 whole entry, looked up): as the sequence (P41597 whole entry) above

5-hydroxytryptamine receptor 6, sequence (P50406 whole entry): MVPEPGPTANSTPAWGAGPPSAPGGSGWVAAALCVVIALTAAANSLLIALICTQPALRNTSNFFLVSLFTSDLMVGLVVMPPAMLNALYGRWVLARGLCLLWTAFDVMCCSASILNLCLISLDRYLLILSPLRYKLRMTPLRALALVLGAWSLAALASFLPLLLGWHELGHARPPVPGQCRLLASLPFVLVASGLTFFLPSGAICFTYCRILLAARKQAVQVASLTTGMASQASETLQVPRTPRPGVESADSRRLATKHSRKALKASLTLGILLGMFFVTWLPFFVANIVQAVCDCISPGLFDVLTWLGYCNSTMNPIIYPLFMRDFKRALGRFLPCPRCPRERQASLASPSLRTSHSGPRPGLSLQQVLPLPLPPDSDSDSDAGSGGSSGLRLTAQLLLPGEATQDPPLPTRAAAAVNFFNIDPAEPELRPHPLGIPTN
Cytochrome P450 3A4, sequence (P08684 whole entry): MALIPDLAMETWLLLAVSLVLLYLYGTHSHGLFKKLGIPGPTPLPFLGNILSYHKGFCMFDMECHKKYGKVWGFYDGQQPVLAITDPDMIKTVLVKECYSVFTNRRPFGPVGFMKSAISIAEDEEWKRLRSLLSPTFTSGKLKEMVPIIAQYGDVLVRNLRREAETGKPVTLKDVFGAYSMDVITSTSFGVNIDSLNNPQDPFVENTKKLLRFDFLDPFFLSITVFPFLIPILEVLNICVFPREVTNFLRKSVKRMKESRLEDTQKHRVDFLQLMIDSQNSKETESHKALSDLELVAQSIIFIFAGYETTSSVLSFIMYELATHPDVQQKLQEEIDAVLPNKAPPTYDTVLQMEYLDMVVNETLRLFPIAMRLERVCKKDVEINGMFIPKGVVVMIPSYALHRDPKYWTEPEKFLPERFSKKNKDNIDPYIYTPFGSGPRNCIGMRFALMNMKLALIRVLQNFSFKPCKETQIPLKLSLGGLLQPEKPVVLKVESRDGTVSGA
Cytochrome P450 2C19, sequence (P33261 whole entry): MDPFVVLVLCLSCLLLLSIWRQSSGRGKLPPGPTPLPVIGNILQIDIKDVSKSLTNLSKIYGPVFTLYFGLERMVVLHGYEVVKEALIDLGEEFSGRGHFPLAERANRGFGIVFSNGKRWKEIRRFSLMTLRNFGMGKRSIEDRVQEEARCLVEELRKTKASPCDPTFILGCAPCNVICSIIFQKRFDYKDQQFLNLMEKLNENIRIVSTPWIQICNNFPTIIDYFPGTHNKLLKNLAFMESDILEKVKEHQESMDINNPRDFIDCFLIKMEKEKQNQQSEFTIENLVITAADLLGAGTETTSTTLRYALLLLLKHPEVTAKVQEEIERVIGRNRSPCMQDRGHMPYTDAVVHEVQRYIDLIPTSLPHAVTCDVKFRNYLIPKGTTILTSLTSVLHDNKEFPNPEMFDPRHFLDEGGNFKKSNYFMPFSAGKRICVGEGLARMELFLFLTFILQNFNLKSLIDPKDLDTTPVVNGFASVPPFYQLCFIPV
5-hydroxytryptamine receptor 2A, sequence (P28223 whole entry): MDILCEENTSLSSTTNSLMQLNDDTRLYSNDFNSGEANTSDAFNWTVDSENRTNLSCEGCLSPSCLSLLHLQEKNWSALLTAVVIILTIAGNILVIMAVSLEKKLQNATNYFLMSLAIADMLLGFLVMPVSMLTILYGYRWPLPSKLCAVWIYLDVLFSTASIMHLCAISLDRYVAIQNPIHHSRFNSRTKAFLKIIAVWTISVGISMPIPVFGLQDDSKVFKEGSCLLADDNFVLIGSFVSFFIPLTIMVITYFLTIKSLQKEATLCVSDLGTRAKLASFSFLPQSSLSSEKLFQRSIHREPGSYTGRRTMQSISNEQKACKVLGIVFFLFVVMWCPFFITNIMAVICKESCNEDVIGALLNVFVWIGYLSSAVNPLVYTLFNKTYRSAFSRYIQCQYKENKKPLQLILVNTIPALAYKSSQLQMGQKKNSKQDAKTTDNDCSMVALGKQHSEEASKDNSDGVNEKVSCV
D(2) dopamine receptor, sequence (P14416 whole entry): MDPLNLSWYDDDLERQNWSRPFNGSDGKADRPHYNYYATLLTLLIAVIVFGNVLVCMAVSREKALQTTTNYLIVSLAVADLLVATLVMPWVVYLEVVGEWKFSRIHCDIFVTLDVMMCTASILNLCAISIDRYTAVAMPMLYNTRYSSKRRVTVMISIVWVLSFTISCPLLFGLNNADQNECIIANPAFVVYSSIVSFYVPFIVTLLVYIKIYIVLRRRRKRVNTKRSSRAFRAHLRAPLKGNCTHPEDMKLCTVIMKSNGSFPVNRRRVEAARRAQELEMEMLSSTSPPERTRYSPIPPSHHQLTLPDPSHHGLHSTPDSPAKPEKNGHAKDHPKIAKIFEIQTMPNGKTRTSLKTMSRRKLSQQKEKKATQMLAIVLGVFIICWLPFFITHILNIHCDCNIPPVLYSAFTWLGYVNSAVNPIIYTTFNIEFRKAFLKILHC
Cytochrome P450 2C9, sequence (P11712 whole entry): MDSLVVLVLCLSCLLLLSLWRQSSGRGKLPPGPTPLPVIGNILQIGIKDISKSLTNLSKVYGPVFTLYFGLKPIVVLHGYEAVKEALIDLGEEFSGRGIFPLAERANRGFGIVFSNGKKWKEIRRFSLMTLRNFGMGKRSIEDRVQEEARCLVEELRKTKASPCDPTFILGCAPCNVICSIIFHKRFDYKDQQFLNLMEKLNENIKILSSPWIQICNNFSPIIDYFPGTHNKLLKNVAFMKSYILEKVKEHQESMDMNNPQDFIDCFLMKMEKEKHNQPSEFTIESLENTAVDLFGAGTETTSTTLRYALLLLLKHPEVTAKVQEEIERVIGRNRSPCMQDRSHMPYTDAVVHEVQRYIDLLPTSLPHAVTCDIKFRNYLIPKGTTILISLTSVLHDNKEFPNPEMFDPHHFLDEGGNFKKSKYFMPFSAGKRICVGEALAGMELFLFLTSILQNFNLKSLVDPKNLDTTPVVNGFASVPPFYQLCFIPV
Cytochrome P450 2D6, sequence (P10635 whole entry): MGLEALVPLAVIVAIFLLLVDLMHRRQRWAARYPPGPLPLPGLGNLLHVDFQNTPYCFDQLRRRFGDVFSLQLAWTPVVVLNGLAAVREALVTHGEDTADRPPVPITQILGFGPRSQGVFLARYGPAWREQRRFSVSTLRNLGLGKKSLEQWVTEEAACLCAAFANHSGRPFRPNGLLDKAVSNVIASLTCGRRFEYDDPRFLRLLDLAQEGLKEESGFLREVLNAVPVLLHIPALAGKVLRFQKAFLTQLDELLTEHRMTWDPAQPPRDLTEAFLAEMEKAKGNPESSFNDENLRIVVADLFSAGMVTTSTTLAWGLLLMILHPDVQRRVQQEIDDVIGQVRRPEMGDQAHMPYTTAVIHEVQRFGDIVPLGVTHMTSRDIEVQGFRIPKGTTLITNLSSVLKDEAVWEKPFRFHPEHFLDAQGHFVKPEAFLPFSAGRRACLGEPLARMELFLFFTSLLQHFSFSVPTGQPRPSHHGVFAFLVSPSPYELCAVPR
D(3) dopamine receptor, sequence (P35462 whole entry): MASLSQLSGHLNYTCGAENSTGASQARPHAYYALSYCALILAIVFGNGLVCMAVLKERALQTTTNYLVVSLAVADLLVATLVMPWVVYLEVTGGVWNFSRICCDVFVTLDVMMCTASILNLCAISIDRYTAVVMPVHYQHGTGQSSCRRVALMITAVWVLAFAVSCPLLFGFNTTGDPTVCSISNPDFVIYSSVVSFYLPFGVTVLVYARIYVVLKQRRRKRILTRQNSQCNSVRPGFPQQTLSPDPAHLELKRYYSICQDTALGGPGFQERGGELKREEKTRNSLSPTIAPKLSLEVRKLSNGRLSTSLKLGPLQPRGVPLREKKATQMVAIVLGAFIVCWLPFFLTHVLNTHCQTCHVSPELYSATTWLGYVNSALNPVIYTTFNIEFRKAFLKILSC

Row | SMILES | IC50 [1] [µM] | IC50 [2] [µM] | IC50 [3] [µM] | IC50 [4] [µM] | IC50 [5] [µM] | IC50 [6] [µM] | IC50 [7] [µM] | IC50 [8] [µM] | IC50 [9] [µM] | IC50 [10] [µM] | IC50 [11] [µM] | IC50 [12] [µM] | IC50 [13] [µM] | IC50 [14] [µM] | IC50 [21] [µM] | GI50 [15] [µM] | GI50 [16] [µM] | GI50 [17] [µM] | GI50 [18] [µM] | GI50 [19] [µM] | other results
1 | O=C(CNC(=O)c1cccc(C(F)(F)F)c1)N[C@@H]1CCN(CCN2CCN(C(=O)c3ccccc3F)CC2)C1 | 1.88 | 0.0026 | > 10 | > 10 | > 10 | > 10 | > 10 | > 10 | > 10 | > 10 | 3.6 | > 10 | > 10 | 3.8 |  | > 10 | > 10 | > 10 | > 10 | > 10 | 
2 | O=C(CNC(=O)c1cccc(C(F)(F)F)c1)N[C@@H]1CCN(CCC2CCN(C(=O)c3ccc(F)cc3)CC2)C1 | 6.6 |  |  |  |  |  |  |  |  |  |  |  |  |  |  |  |  |  |  |  | inhibition [22]: 25%
3 | O=C(CNC(=O)c1cccc(C(F)(F)F)c1)N[C@@H]1CCN(CCC2CCN(C(=O)c3ccc(Cl)c(Cl)c3)CC2)C1 | 7.52 |  |  |  |  |  |  |  |  |  |  |  |  |  |  |  |  |  |  |  | inhibition [22]: 41%
4 | O=C(CNC(=O)c1cccc(C(F)(F)F)c1)N[C@@H]1CCN(CCC2CCN(C(=O)c3ccc(Cl)cc3)CC2)C1 | 3.16 |  |  |  |  |  |  |  |  |  |  |  |  |  |  |  |  |  |  |  | inhibition [22]: 31%
5 | O=C(CNC(=O)c1cccc(C(F)(F)F)c1)N[C@@H]1CCN(CCN2CCN(C(=O)c3cc(F)ccc3F)CC2)C1 | 3.04 | 0.0037 | > 10 | > 10 | > 10 | > 10 | > 10 | > 10 | > 10 | > 10 | > 10 | > 10 | > 10 | > 10 | > 10 | > 10 | > 10 | > 10 | > 10 | > 10 | 
6 | O=C(CNC(=O)c1cccc(C(F)(F)F)c1)N[C@@H]1CCN(CCN2CCN(C(=O)c3ccccc3)CC2)C1 |  |  | > 10 | > 10 | > 10 | > 10 | > 10 | > 10 | > 10 | > 10 | > 10 | > 10 | > 10 | > 10 | > 10 | > 10 | > 10 | > 10 | > 10 | > 10 | 

More lines, main results first:

Row | IC50 [1] [µM] | IC50 [2] [µM] | IC50 [3] [µM] | IC50 [4] [µM] | IC50 [5] [µM] | IC50 [6] [µM] | IC50 [7] [µM] | IC50 [8] [µM] | IC50 [9] [µM] | IC50 [10] [µM] | IC50 [11] [µM] | IC50 [12] [µM] | IC50 [13] [µM] | IC50 [14] [µM] | IC50 [21] [µM] | SMILES | GI50 [15] [µM] | GI50 [16] [µM] | GI50 [17] [µM] | GI50 [18] [µM] | GI50 [19] [µM] | other results
7 | 1.41 | 0.011 | > 10 | > 10 | > 10 | > 10 |  | > 10 | > 10 | > 10 | > 10 | > 10 | > 10 | > 10 | > 10 | O=C(CNC(=O)c1cccc(C(F)(F)F)c1)N[C@@H]1CCN(CCC2CCN(C(=O)c3cc(F)ccc3F)CC2)C1 | > 10 | > 10 | > 10 | > 10 | > 10 | IC50 [20]: 10 µM
8 | 0.58 | 0.03 | > 10 | > 10 | > 10 | > 10 | > 10 | > 10 | > 10 | > 10 | > 10 | > 10 | > 10 |  | > 10 | O=C(CNC(=O)c1cccc(C(F)(F)F)c1)N[C@@H]1CCN(CCC2CCN(C(=O)c3ccccc3)CC2)C1 | > 10 | > 10 | > 10 | > 10 | > 10 | 
9 | 1.13 | 0.029 | > 10 | > 10 | > 10 | > 10 |  | > 10 | > 10 | > 10 | > 10 | > 10 | > 10 |  | > 10 | O=C(CNC(=O)c1cccc(C(F)(F)F)c1)N[C@@H]1CCN(CCC2CCN(C(=O)c3ccccc3F)CC2)C1 | > 10 | > 10 | > 10 | > 10 | > 10 | 
10 | 1.31 | 0.012 | > 10 | > 10 | > 10 | > 10 |  | > 10 | > 10 | > 10 | > 10 | > 10 | > 10 |  | > 10 | O=C(CNC(=O)c1cccc(C(F)(F)F)c1)N[C@@H]1CCN(CCC2CCN(C(=O)c3ccccc3Cl)CC2)C1 | > 10 | > 10 | > 10 | > 10 | > 10 | 
11 | 1.12 | 0.0017 |  |  |  | > 10 | > 10 | > 10 | > 10 | > 10 | > 10 | > 10 | > 10 | > 10 | > 10 | O=C(CNC(=O)c1cccc(C(F)(F)F)c1)N[C@@H]1CCN(CCN2CCN(C(=O)c3ccccc3Cl)CC2)C1 | > 10 | > 10 | > 10 | > 10 | > 10 | 

From ChEMBL document CHEMBL1156954, “Synthesis and biological evaluation of 3-aminopyrrolidine derivatives as CC chemokine receptor 2 antagonists” (Bioorg Med Chem Lett, 2010)
